# According to article PMC4209162, “Specific aromatic foldamers potently inhibit spontaneous and seeded Aβ42 and Aβ43 fibril assembly” (Biochemical Journal, 2014):
# Columns and labels:
# Aβ42 [1] = target: T1, Aβ42 (Homo sapiens, UniProt P05067); test: Spontaneous Aβ42 fibrillization (ThT fluorescence, EM); type: biochemical; conditions: for Inhibition of spontaneous Aβ42 fibrillization: Aβ42 5 μM, foldamer 10 μM, 8 h, agitation, ThT fluorescence (EM 4 h)
# Aβ43 [2] = target: T2, Aβ43 (Homo sapiens, UniProt P05067); test: Spontaneous Aβ43 fibrillization (ThT fluorescence, EM); type: biochemical
# Aβ42 [3] = target: T1, Aβ42; test: Seeded Aβ42 fibrillization (ThT fluorescence, EM); type: biochemical; conditions: Aβ prepared without DMSO, PBE pH 8, Aβ42 5 μM plus seed 0.1 μM monomer, foldamer 20 μM, 16 h
# [4] = test system: SH-SY5Y human neuroblastoma cells; test: Toxicity of Aβ43 conformers to SH-SY5Y cells (MTT reduction, LDH release); type: cell-based; conditions: 24 h, MTT and LDH
# Procedure: (§1) SH-SY5Y human neuroblastoma cells were maintained in Dulbecco's modified Eagle's medium (DMEM) plus 10 mM Hepes, 10% FBS, 4 mM glutamine, penicillin (200 units/ml) and streptomycin (200 μg/ml) in 5% CO2 at 37°C. Cells were differentiated in serum-free DMEM with N2 supplement and 10 μM all-trans-retinoic acid before use. Cells were plated at (10000 cells/well) in 96-well plates and grown overnight. Medium was removed and Aβ conformers or controls were added and cells were incubated for 24 h at 37°C. Toxicity was assessed using an MTT kit (Tox-1; Sigma) or via lactate dehydrogenase (LDH) release using the CytoTox-ONE™ kit (Promega). Toxicity values were normalized to the buffer control without Aβ.
# Aβ43 [5] = target: T2, Aβ43; test: Seeded Aβ43 fibrillization (ThT fluorescence, EM); type: biochemical; conditions: Aβ prepared without DMSO, PBE pH 8, Aβ43 5 μM plus seed 0.1 μM monomer, foldamer 20 μM, 16 h, ThT
# Aβ43 oligomers = Aβ43 oligomers (Homo sapiens, UniProt P05067); test: A11-reactive Aβ43 conformers (ELISA); type: biochemical; conditions: Aβ43 5 μM, foldamer 20 μM, 25°C
# Aβ42 oligomers = Aβ42 oligomers (Homo sapiens, UniProt P05067); test: A11-reactive Aβ42 conformers (ELISA); type: biochemical; conditions: Aβ42 5 μM, foldamer 20 μM, 25°C
# [6] = test system: SH-SY5Y human neuroblastoma cells; test: Toxicity of Aβ42 conformers to SH-SY5Y cells (MTT reduction, LDH release); type: cell-based; conditions: 24 h, MTT and LDH
# Procedure: as §1
# [7] = 4 h (endpoint of fibrillization)
# T2 sequence (P05067 672-714 limits assumed): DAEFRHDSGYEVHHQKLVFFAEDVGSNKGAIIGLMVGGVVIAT
# T1 sequence (P05067 672-713 limits assumed): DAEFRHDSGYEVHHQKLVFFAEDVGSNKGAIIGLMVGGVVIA
# Aβ43 oligomers, sequence (P05067 672-714 limits assumed): as the sequence (P05067 672-714 limits assumed) above
# Aβ42 oligomers, sequence (P05067 672-713 limits assumed): as the sequence (P05067 672-713 limits assumed) above
compound,measurement,setting,value
(Arg-Sal)2-(Cit-Sal)-(Arg-Sal)-CONH2,Inhibition of spontaneous Aβ42 fibrillization,Aβ42 [1]; 25°C,ineffective
(Lys-Sal)4-COMe,Inhibition of spontaneous Aβ42 fibrillization,Aβ42 [1]; 25°C,ineffective
(Cit-Sal)-(Arg-Sal)-(Cit-Sal)2-CONH2,Inhibition of spontaneous Aβ42 fibrillization,Aβ42 [1]; 25°C,ineffective
(Cit-Sal)2-(Arg-Sal)-(Cit-Sal)-CONH2,Inhibition of spontaneous Aβ42 fibrillization,Aβ42 [1]; 25°C,ineffective
COc1ccc(NC(=O)[C@H](CCCNC(N)=O)NC(=O)c2cc(NC(=O)[C@H](CCCNC(=N)N)NC(=O)c3cc(NC(=O)[C@H](CCCNC(=N)N)NC(=O)c4cc(NC(=O)[C@@H](N)CCCNC(=N)N)ccc4OC)ccc3OC)ccc2OC)cc1C(N)=O [(Arg-Sal)3-(Cit-Sal)-CONH2],IC50,Aβ43 [2],~3.1 µM
same,IC50,Aβ42 [1],~1.6 µM
(Lys-Sal)4-COβAla,Inhibition of spontaneous Aβ42 fibrillization,Aβ42 [1]; 25°C,ineffective
(Lys-Sal)2-CONH2,Inhibition of spontaneous Aβ42 fibrillization,Aβ42 [1]; 25°C,failed to inhibit assembly
Sal-(Lys-Sal)2-CONH2,Inhibition of spontaneous Aβ42 fibrillization,Aβ42 [1]; 25°C,failed to inhibit assembly
(Cit-Sal)4-CONH2,"Inhibition of seeded Aβ42 fibrillization, different assembly conditions",Aβ42 [3],had no effect
same,Effect on toxicity of Aβ43 conformers after 0.5 h of assembly,[4]; Aβ43 5 μM assembled with foldamer 20 μM for 0.5 h,had no effect on toxicity
same,Effect on toxicity of Aβ43 conformers after 4 h of assembly,[4]; Aβ43 5 μM assembled with foldamer 20 μM for 4 h,had no effect on toxicity
same,"Inhibition of spontaneous Aβ43 fibrillization, different assembly conditions","Aβ43 [2]; Aβ prepared without DMSO, PBE pH 8, Aβ43 5 μM, foldamer 20 μM, 16 h, 25°C, ThT",had no effect
same,"Inhibition of seeded Aβ43 fibrillization, different assembly conditions",Aβ43 [5],had no effect
same,Effect on A11-reactive Aβ43 conformers after 0.5 h,Aβ43 oligomers; 0.5 h (end of lag phase),had no effect
same,Effect on A11-reactive Aβ43 conformers after 4 h,Aβ43 oligomers; [7],had no effect
same,Inhibition of spontaneous Aβ42 fibrillization,Aβ42 [1]; 25°C,ineffective
same,"Inhibition of spontaneous Aβ42 fibrillization, different assembly conditions","Aβ42 [1]; Aβ prepared without DMSO, PBE pH 8, Aβ42 5 μM, foldamer 20 μM, 16 h, 25°C, ThT",had no effect
same,Effect on A11-reactive Aβ42 conformers after 0.5 h,Aβ42 oligomers; 0.5 h (end of lag phase),had no effect
same,Effect on A11-reactive Aβ42 conformers after 4 h,Aβ42 oligomers; [7],had no effect
same,Effect on toxicity of Aβ42 conformers after 0.5 h of assembly,[6]; Aβ42 5 μM assembled with foldamer 20 μM for 0.5 h,had no effect on toxicity
same,Effect on toxicity of Aβ42 conformers after 4 h of assembly,[6]; Aβ42 5 μM assembled with foldamer 20 μM for 4 h,had no effect on toxicity
